What was measured:
[1] = test system: GR transcriptional activity; test: Acute corticosterone exposure or basal conditions: RT-qPCR of GR target genes in tissues; type: in vivo, C57Bl/6J mice
Description: (§1) All studies involving animals were approved by the institutional ethics committee on animal care and experimentation at the Leiden University Medical Center. The 8-week old male C57Bl/6J mice (Charles River) were housed in ventilated cages with a 12 h light:12 h darkness regime and ad libitum access to food and water. In the acute corticosterone exposure experiments, mice received a synthetic chow diet (Research Diets, New Brunswick, NJ, USA) containing vehicle or CORT125281 (6, 20 or 60 mg/kg/day, Corcept Therapeutics, Menlo Park, CA, USA) for 6 days. […] Mice were treated daily with vehicle, 60 mg/kg mifepristone (Corcept Therapeutics) or 60 mg/kg CORT125281 (dissolved in PBS with 0.1% Tween 80 and 0.5% hydroxypropylmethylcellullose, Corcept Therapeutics) via oral gavage for 5 days, after which mice were killed by CO2 inhalation. Throughout the experiment, body weight was monitored and body composition was determined with EchoMRI™ (Frankfurt, Germany). After 5 days, blood was collected from the lateral tail vain in paraoxon-coated capillaries after a 6-h fast. Plasma triglyceride, total cholesterol, free fatty acid, glucose and insulin levels were determined using commercially available kits (Roche; Instruchemie, Delfzijl, Netherlands and Crystal Chem, Zaandam, Netherlands). Blood concentrations of the major leukocyte classes, that is, lymphocytes, monocytes and eosinophils, were determined in whole blood using an automatic veterinary hematology analysis (Sysmex XT-2000iV; Goffin Meyvis, Etten-Leur, the Netherlands).
(§2) In both acute and subchronic corticosterone experiments, relevant tissues (including quadriceps muscle, interscapular BAT, gonadal white adipose tissue (WAT), adrenals, spleen, thymus, pituitary and hippocampus) were collected to determine tissue weight and/or for further molecular analysis.
(§3) Total RNA was isolated from snap-frozen tissues using TriPure isolation reagent (Roche). After reverse transcription to cDNA (Promega), RT-qPCR was performed using IQ SYBR-Green supermix and MyIQ thermal cycler (Bio-RAD CFX96). Primers were tested for high efficiency (90–110%) and for amplification of a single PCR product. All primer sequences are listed in Supplementary Table 1 (see section on supplementary materials given at the end of this article), with the exception of Ncor1 and Ncor2 which were purchased from Qiagen. Fold change expression was calculated using the 2^−ΔΔ^CT method.

other nuclear receptors = test system: other nuclear receptors; design: method as in Kroon et al. 2018; conditions: ref Kroon et al. 2018; cited from earlier work
[2] = test system: GR transcriptional activity; test: Subchronic corticosterone exposure: RT-qPCR of GR and insulin target genes in tissues; type: in vivo, C57Bl/6J mice; conditions: corticosterone pellet 5 days, 60 mg/kg/day oral gavage
Description: as §1, §2, §3

[3] = target: T1, human GR ligand-binding domain (Homo sapiens, UniProt P04150); test: MARCoNI peptide interaction profiling (coregulator-nuclear receptor interaction); type: biochemical; conditions: CORT125281 1 µM
T1 construct: purchased Invitrogen PV4689
T1 sequence (P04150 524-758 limits assumed): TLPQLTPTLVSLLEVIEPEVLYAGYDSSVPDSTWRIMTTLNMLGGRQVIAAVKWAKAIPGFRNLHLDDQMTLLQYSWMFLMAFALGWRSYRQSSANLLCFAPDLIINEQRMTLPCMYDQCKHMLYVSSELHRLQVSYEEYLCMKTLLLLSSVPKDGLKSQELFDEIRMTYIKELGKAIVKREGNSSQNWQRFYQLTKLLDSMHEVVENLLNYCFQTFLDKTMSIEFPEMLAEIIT
Description: As the assay utilizes human GR, experiments were performed with cortisol rather than corticosterone. […] Incubation was performed at 20°C in a PamStation96 (PamGene International, Den Bosch, Netherlands) for 40 min. Receptor binding to each peptide on the array, reflected by a fluorescent signal, was quantified by analysis of .tiff images using BioNavigator software (PamGene International).

GR activity in the brain = test: In situ hybridization of Gilz mRNA, Fkbp5 hnRNA, Nr3c1 and Nr3c2 in hippocampus and PVN; type: in vivo, C57Bl/6J mice
Description: as §1
For dual label in situ hybridization, frozen unfixed pituitaries were embedded in tissue-tek OCT (Sakura Finetek, Alphen aan den Rijn, Netherlands), sliced (12 µm) and collected on glass slides (Superfrost Plus, Thermo Fisher Scientific). Dual label in situ hybridization was performed using the QuantiGene ViewRNA ISH Tissue 2-Plex Assay (Thermo Fisher Scientific) and pictures were captured with a wide-field microscope (DM6B, Leica Microsystems). For 4-plex in situ hybridization, frozen, unfixed brain slices (12 µm) were collected on glass slides at bregma −0.772 mm (PVN) and −1.532 mm (hippocampus). 4-plex in situ hybridization was performed using the RNAScope fluorescent multiplex assay and RNAscope 4-plex ancillary kit (Advanced Cell Diagnostics, Newark, CA, USA) and Opal fluorophores 520, 570, 620 and 690 (PerkinElmer). Pictures were captured with a confocal microscope (SP8 WLL, Leica Microsystems). All pictures were analysed with ImageJ Software (NIH).

male C57Bl/6J mice = test: Subchronic corticosterone exposure (pellet): body composition, organ weights, leukocytes, plasma insulin, glucose, lipids; type: in vivo; conditions: corticosterone pellet 5 days, 60 mg/kg/day oral gavage
Description: as §1, §2

[4] = 60 mg/kg/day, corticosterone 1.5 mg/kg, liver
[5] = 60 mg/kg/day, without corticosterone exposure
[6] = 20 mg/kg/day CORT125281 6 days, corticosterone injection 1 h

With Cn1ncc(S(=O)(=O)N2CC[C@H]3Cc4c(cnn4-c4ccc(F)cc4)C[C@]3(C(=O)c3cc(C(F)(F)F)ccn3)C2)n1 [CORT125281] the “corticosterone-induced mRNA of GR target genes in liver” value ([1]; 60 mg/kg/day via food 6 days, corticosterone 1.5 mg/kg s.c. 1 h before killing, liver) was “complete blockade”, the “corticosterone-induced GR target genes in BAT” value ([1]; 60 mg/kg/day via food 6 days, corticosterone 1.5 mg/kg, BAT) was “inhibition of only a subset of corticosterone-induced genes” and the “corticosterone-induced GR target genes in WAT” value ([1]; 60 mg/kg/day via food 6 days, corticosterone 1.5 mg/kg, WAT) was “no effects”. For the same compound, the “corticosterone-induced GR target genes in hippocampus” value ([1]; 60 mg/kg/day via food 6 days, corticosterone 1.5 mg/kg, hippocampus) was “no effects”, the “corticosterone-induced GR target genes in muscle” value ([1]; 60 mg/kg/day via food 6 days, corticosterone 1.5 mg/kg, quadriceps muscle) was “inhibition of only a subset of corticosterone-induced genes” and the “corticosterone induction of G6pc in liver” value [1, 4] was “a similar pattern was observed”. For the same compound, the “corticosterone induction of Pepck in liver” value [1, 4] was “blocked the induction”, the “corticosterone induction of Murf1 in muscle” value ([1]; 60 mg/kg/day, corticosterone 1.5 mg/kg, muscle) was “completely blocked” and the “mRNA levels of Gilz and G6p in liver” value ([1]; 60 mg/kg/day, intact animals without prior corticosterone exposure) was “inhibited mRNA levels”. For the same compound, the “Cd36 expression in BAT” value [1, 5] was “upregulated”, the “GR target gene expression in WAT” value [1, 5] was “did not affect” and the “GR target gene expression in muscle” value [1, 5] was “did not affect”. For the same compound, the “expression of Sgk1 and Mt2a in hippocampus” value ([1]; 60 mg/kg/day, without corticosterone exposure, to a very modest extent) was “downregulated”, the “antagonistic actions on corticosterone-induced genes in BAT” value ([1]; 6-20 mg/kg/day doses, BAT) was “completely lost” and the “Mt2a expression in liver of solvent-injected mice” value ([1]; 6 and 20 mg/kg/day, solvent injection) was “inhibited”. The “corticosterone-induced GR transcriptional activity of Fkbp5, Gilz, Sgk1 and Mt2a in liver” value ([1]; lower doses 6 and 20 mg/kg/day, 6 days, corticosterone 1 h before tissue collection) was “partially inhibited”, the “GR transcriptional activity in WAT” value ([1]; lower doses 6 and 20 mg/kg/day, WAT) was “did not inhibit” and the “dose required to attenuate corticosterone-induced expression of Fkbp5 and Gilz in liver” value ([1]; via food 6 days, liver) was 20 mg/kg/day. The “dose sufficient to attenuate corticosterone-induced expression of Sgk1 and Mt2a in liver” value ([1]; via food 6 days, liver) was 6 mg/kg/day, the “cross-reactivity with other nuclear receptors” value (other nuclear receptors) was “lacks cross-reactivity” and the “expression of insulin target genes G6p and Pepck in liver, Glut4 and Lpl in WAT, Glut4 and Gsk3b in muscle” value [2] was “did not affect”. For the same compound, the “corticosterone-induced expression of GR target genes (Fkbp5, Gilz, Sgk1, Mt2a)” value ([2]; liver, muscle, BAT, WAT, hippocampus) was “did not prevent”, the “hierarchal clustering of ligand-induced GR-coregulator response profile” value [3] was “clustered with that of mifepristone” and the “number of coregulator motifs recruited compared to mifepristone” value [3] was “tended to recruit fewer motifs”. The “binding of corepressor motifs of NCOR1 and NCOR2 (SMRT) by ligand-GR complex” value ([3]; mifepristone 0.1 µM) was “only very modestly”, the “Nr3c1 (Gr) mRNA levels in the hippocampus” value (GR activity in the brain; [6]) was “Neither corticosterone nor CORT125281 affected” and the “Nr3c1 or Nr3c2 expression in the PVN” value (GR activity in the brain; [6]) was “Neither corticosterone nor CORT125281 affected”. The “basal mineralocorticoid receptor (MR; Nr3c2) mRNA expression in the hippocampus” value (GR activity in the brain; 6-20 mg/kg/day) was “increased”, the “corticosterone-induced Fkbp5 hnRNA and Gilz mRNA levels in the PVN” value (GR activity in the brain; 6-20 mg/kg/day) was “had little effect” and the “corticosterone induction of Gilz mRNA and Fkbp5 hnRNA in hippocampal subfields” value (GR activity in the brain; 6-20 mg/kg/day, corticosterone 1 h before tissue collection) was “did not prevent this induction”. For the same compound, the “basal levels of Fkbp5 hnRNA in CA2 and CA3 regions” value (GR activity in the brain; 6-20 mg/kg/day, hippocampus) was “upregulated”, the HOMA-IR (male C57Bl/6J mice) was “improved” and the “corticosterone-induced alteration in body weight (BW) gain” value (male C57Bl/6J mice) was “did not prevent”. For the same compound, the “corticosterone-induced hyperlipidaemia (plasma triglycerides, total cholesterol)” value (male C57Bl/6J mice) was “seemed to modestly reduce”, the “free fatty acid levels” value (male C57Bl/6J mice) was “did not affect” and the glucose levels (male C57Bl/6J mice) was “improved”. The “lean mass (reduced by corticosterone)” value (male C57Bl/6J mice) was “not altered”, the thymus weight (male C57Bl/6J mice) was “did not prevent” and the corticosterone-induced hyperinsulinemia (male C57Bl/6J mice; 6-h fast) was “partially prevented”.

From article PMC7274539, “The selective glucocorticoid receptor antagonist CORT125281 has tissue-specific activity” (The Journal of Endocrinology, 2020)
